From patent publication US11974990B2, “TXNIP-TRX complex inhibitors and methods of using the same” (City of Hope, priority 2018, dated 2024)

System: THP1 cells
Test: Differential gene expression analysis by RNA-seq in high glucose treated THP1 cells
Assay type: cell-based, human
Conditions: THP1, HG 25 mM 72 hr with vs without C1 5 uM
Procedure: FIG. 17. Hierarchical Clustering using differential expressed genes. Differential expression was calculated using these counts with edgeR (5, 6) version 3.0. After correcting for differences in library sizes, a fold change of >1.5 and a p-value of <0.05 were applied to select expressed genes. The corrected measures of the latter were further processed using Cluster3.0 (7) to generate a heatmap using Java TreeView. C=HG treated THP-1 cells (A, B are replicates); T=HG+C1 5 uM (C, D are replicates). […]
RNA-seq: Sequence alignment and gene counts. RNA-Seq reads were trimmed to remove sequencing adapters using Trimmomatic (Bolger et al., 2014), and polyA tails using FASTP (Chen et al., 2018). The processed reads were mapped to the human genome (hg19) using STAR software (v. 020201) (Dobin et al., 2013). […]
Differential gene expression analyses by RNA-seq. […] Differential expression analysis was conducted by adjusting read counts to normalized expression values using the TMM normalization method in edgeR package (Robinson et al., 2010). […] Next, Raw counts for each gene in the GENCODE coding gene annotation (hg19) were measured using HTseq (Anders and Huber, 2010) with an argument of “-r pos -s reserve”. Differential expression was calculated using these counts with edgeR (5, 6) version 3.0. […]

Q: Which “TXNIP and TNF-α expression by RNA-seq” value does the source give for `CC(C)C(C(=O)O)N1C(=O)c2ccncc2C1=O` (stereo not shown) [Compound C1, 2-(1,3-dioxo-1,3-dihydro-2H-pyrrolo[3,4-c]pyridin-2-yl)-3-methylbutanoic acid] here?
A: Its value is “suppressed TXNIP and TNF-α”.
